Like-named read-outs stand apart in the source and are kept apart here.

The target of one experiment is T1, Human PMN Elastase (Homo sapiens, UniProt P08246).
T1 construct: Crude extract of human polymorphonuclear leukocytes (PMN) containing elastase activity; from tissue; host or cells: human polymorphonuclear leukocytes (crude extract)
T1 sequence (P08246 30-267): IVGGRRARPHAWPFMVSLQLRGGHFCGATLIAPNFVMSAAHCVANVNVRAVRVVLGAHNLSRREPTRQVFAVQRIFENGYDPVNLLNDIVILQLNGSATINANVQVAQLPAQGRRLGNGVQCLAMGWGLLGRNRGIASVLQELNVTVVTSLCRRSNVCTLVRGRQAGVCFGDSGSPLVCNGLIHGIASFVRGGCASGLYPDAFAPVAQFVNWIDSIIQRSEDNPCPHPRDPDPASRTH
The experiment can be described thus: Human PMN elastase inhibition (Boc-AAPAN hydrolysis, 410 mμ). The experiment is classed as biochemical. Particulars: 0.2 mM Boc-AAPAN, pH 7.5, crude human PMN extract; read-out: ID50 Human PMN Elastase (converted). The method, then:
N-tris (hydroxymethyl) methyl-2-aminoethane sulfonic acid
0.2 mM N-t-Box-Alanyl-Alanyl-Prolyl-Alanine-p-nitroanilide=Boc-AAPAN
To prepare substrate, the solid (m.w. 550) was first dissolved in 10.0 ml. DMSO. Buffer at pH 7.5 was then added to a final volume of 100 ml.
Crude extract of human polymorphonuclear leukocytes (PMN) containing elastase activity.
(§1) Inhibitors to be tested dissolved in DMSO just before use.
To 1.0 ml. of 0.2 mM Box-AAPAN in a cuvette, 0.01-0.1 ml. of DMSO with or without inhibitor was added. After mixing, a measurement was taken at 410 mμ to detect any spontaneous hydrolysis due to presence of test compound. 0.05 ml. of PMN extract was then added and the ΔOD/min at 410 mμ was measured and recorded. A Gilford 240 or Beckman DB-G spectrophotomer was used.
Results were obtained as % inhibition produced by test compound as represented by the % decrease in ΔOD/min. of a control. The ID50 was then derived from the % inhibition curve.
The elastase activity in the crude PMN extract may vary from one preparation to another. A control of each new batch is run and the volume added in the assay procedure is adjusted according to activity.

The target in experiment [1] is T2, Porcine Pancreatic Elastase (Sus scrofa, UniProt P00772).
T2 construct: purchased Worthington
T2 sequence (P00772 27-266): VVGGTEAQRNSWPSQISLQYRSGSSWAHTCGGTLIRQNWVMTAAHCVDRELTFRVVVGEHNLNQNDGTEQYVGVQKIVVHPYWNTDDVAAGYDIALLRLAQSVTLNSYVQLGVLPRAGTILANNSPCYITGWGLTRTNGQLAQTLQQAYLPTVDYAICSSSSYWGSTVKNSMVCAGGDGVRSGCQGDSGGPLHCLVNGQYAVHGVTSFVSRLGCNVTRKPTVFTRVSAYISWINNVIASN
Briefly: Porcine pancreatic elastase inhibition (Boc-AAPAN hydrolysis, 410 mμ). The experiment is classed as biochemical. Conditions: 0.2 mM Boc-AAPAN, pH 7.5, purified PPE; read-out: ID50 Porcine Pancreatic Elastase (converted).
Description: PORCINE PANCREATIC ELASTASE:
Solution of purified porcine pancreatic elastase (PPE) (Worthington)
To 1.0 ml. of 0.2 mM Box-AAPAN in a cuvette, 0.01-0.1 ml. of DMSO with or without inhibitor was added. After mixing, a measurement was taken at 410 mμ to detect any spontaneous hydrolysis due to presence of test compound. 0.05 ml. of PPE extract was then added and the ΔOD/min at 410 m° was measured and recorded. A Gilford 240 or Beckman DB-G spectrophotometer was used.
The elastase activity in the crude PPE extract may vary from one preparation to another. A control of each new batch is run, and the volume added in the assay procedure is adjusted according to activity.

The next experiment deals with T3, Chymotrypsin (Bos taurus, UniProt P00766).
T3 construct: purchased Worthington
Briefly: Chymotrypsin inhibition (Ac-AAPPhN hydrolysis, 410 mμ). The experiment is classed as biochemical, bovine. Here is the method:
a-Chymotrypsin (Worthington, 3X crystallized, lyophilized) at 100 μg/ml in 0.001 M HCl (1 mg/ml by wt. diluted 1:10)
0.2 mM N-Acetyl-Alanyl-Alanyl-Prolyl-Phenylalanyl-p-nitroanilide=Ac-AAPPhN.To prepare substrate, the solid (M.W. 566) was first dissolved in 10.0 ml DMSO. Buffer at pH 7.5 was then added to a final volume of 100 ml.
as §1
To 1.0 ml of 0.2 mM Ac-AAPPhN in a cuvette, 0.01-0.05 ml of DMSO with or without inhibitor was added. After mixing, a measurement was taken at 410 mμ to detect any spontaneous hydrolysis due to the presence of test compound. 0.01 ml of α-chymotrypsin solution was then added and the ΔOD/min at […] was measured and recordeed. A Gilford 240 240 spectrophotometer was used.
Results were obtained as % inhibition produced by test compound as represented by the % decrease in ΔOD/min of a control. The ID50 was then derived from the % inhibition curve.

In the next experiment the target is T4, Trypsin (Bos taurus, UniProt P00760).
T4 construct: purchased Worthington TRL
T4 sequence (P00760 24-246): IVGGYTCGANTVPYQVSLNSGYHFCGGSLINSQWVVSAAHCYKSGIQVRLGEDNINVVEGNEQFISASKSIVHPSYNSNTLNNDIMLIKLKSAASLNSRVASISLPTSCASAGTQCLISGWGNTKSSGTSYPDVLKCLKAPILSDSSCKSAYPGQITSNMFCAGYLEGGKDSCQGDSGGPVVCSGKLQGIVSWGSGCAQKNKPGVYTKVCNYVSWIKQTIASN
Briefly: Trypsin inhibition (BAPA hydrolysis, 410 mμ). The experiment is classed as biochemical, bovine.

For a further experiment, the target named is T5, Human PMN Cathepsin G (Homo sapiens, UniProt P08311).
T5 construct: Purified extract of human polymorphonuclear leukocytes (PMN) containing chymotrypsin-like activity; from tissue; host or cells: human polymorphonuclear leukocytes (purified extract)
T5 sequence (P08311 21-255): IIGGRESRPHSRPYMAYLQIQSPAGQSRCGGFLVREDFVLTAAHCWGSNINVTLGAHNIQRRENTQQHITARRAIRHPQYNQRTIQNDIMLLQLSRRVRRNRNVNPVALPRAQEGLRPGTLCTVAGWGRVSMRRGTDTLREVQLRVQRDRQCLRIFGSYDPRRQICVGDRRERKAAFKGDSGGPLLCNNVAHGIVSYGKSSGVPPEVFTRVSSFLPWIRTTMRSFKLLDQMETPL
Briefly: Human PMN cathepsin G inhibition (BTNP hydrolysis, 347.5 mμ). The experiment is classed as biochemical. Conditions: 0.2 mM BTNP, pH 6.5, purified human PMN extract; read-out: ID50 Human PMN Cathepsin G (converted).

A further experiment concerns Papain induced emphysema. Particulars: hamster; cited from earlier work.
For the next experiment, the system named is papain. Conditions: cited from earlier work.
The subject of experiment [2] is trypsin, chymotrypsin, plasmin, kallikrein, elastase, and thrombin. Particulars: glycoprotein in human serum; cited from earlier work.
[3] abbreviates: 0.2 mM Ac-AAPPhN, pH 7.5, α-chymotrypsin, read-out: ID50 Chymotrypsin (converted).
Where [4] appears, read: 1.0 mM BAPA, pH 7.5, read-out: ID50 Trypsin (converted).

Description for Human PMN Cathepsin G: 0.05 M PIPES buffer [piperazine-N,N'-bis(2-ethanesulfonic acid), mono-sodium salt, monohydrate], pH 6.5.
0.2 mM t-Box-L-Tyrosine-p-Nitrophenyl ester=BTNP
Purified extract of human polymorphonuclear leukocytes (PMN) containing chymotrypsin-like activity.
To 1.0 ml of 0.2 mM BTNP in a cuvette, 0.01-0.1 ml of DMSO with or without inhibitor was added. After mixing, a measurement was taken at 347.5 mμ to detect any spontaneous hydrolysis due to the presence of test compound. 0.01 ml of PMN extract was then added and the ΔOD/min at 347.5 mμ was measured and recorded. A Gilford 240 or Beckman DB-G spectrophotometer was used.
To prepare substrate, 8.0 mg of solid (m.w. 402) was first dissolved in 10.0 ml DMSO. Buffer at pH 6.5 was then added to a final volume of 100 ml. Final DMSO concentration was 10%. Substrate prepared in this manner is stable for 3-4 hours at room temperature.
All activites were tested for reactivity with nitrophenol. The test is invalid if the test compound reacts with nitrophenol.

As to `O=C1c2ccccc2S(=O)(=O)N1c1ccc([N+](=O)[O-])cc1` [reference compound], the IC50 is 164 µM on Human PMN Elastase, 329 µM in experiment [1], 329 µM against Chymotrypsin and 329 µM against Trypsin.

Take `O=C1c2ccccc2S(=O)(=O)N1c1ccc([N+](=O)[O-])cc1[N+](=O)[O-]`: the IC50 is 2.86 µM on Human PMN Elastase, 143 µM in experiment [1], 1.43 µM on Chymotrypsin and 143 µM on Trypsin.

With `O=C1c2ccccc2S(=O)(=O)N1c1c(F)c(F)c(F)c(F)c1F`, the IC50 on Human PMN Elastase was 2.86 µM; in experiment [1], 143 µM; against Chymotrypsin it was 143 µM; on Trypsin, 143 µM.

As for `CCC(CC)C(=O)N1C(=O)c2ccccc2S1(=O)=O` [reference compound], the IC50 on Human PMN Elastase is 0.355 µM; in experiment [1] it was 1.07 µM; at Chymotrypsin (setting [3]) it was 0.142 µM; at Trypsin (setting [4]) it was 3.55 µM.

`O=C1c2ccccc2S(=O)(=O)N1c1ncccc1[N+](=O)[O-]`: the IC50 on Human PMN Elastase was 1.64 µM; in experiment [1], 65.5 µM; on Chymotrypsin (setting [3]) it was 0.655 µM; on Trypsin (setting [4]), 65.5 µM.

Take `N#Cc1ccc(N2C(=O)c3ccccc3S2(=O)=O)nc1`: the values for the IC50 at Human PMN Elastase and at Chymotrypsin (setting [3]) were 10.5 µM and 59.6 µM, respectively.

On to `O=C(c1cccs1)N1C(=O)c2ccccc2S1(=O)=O` [reference compound], for which the IC50 is 0.341 µM at Human PMN Elastase, 0.682 µM in experiment [1], 0.682 µM against Chymotrypsin and 0.0682 µM on Trypsin (setting [4]).

`N#Cc1cc([N+](=O)[O-])ccc1N1C(=O)c2ccccc2S1(=O)=O`: the IC50 at Human PMN Elastase is 3.04 µM; in experiment [1] it was 60.7 µM; at Chymotrypsin (setting [3]), 0.607 µM; against Trypsin, 60.7 µM; at Human PMN Cathepsin G it was 45.6 µM.

Take `C=CC(=O)N1C(=O)c2ccccc2S1(=O)=O` [reference compound]: the IC50 is 0.422 µM at Human PMN Elastase; 0.843 µM in experiment [1]; 0.295 µM on Chymotrypsin (setting [3]); 1.69 µM on Trypsin (setting [4]); 4.22 µM on Human PMN Cathepsin G.

For `N#Cc1ccc(N2C(=O)c3ccccc3S2(=O)=O)c(C#N)c1`, the IC50 was 4.85 µM on Human PMN Elastase; 162 µM in experiment [1]; 3.23 µM at Chymotrypsin (setting [3]); 162 µM on Trypsin (setting [4]); 162 µM on Human PMN Cathepsin G.

On to “α1 -Antitrypsin: a glycoprotein in human serum”, for which the “inhibition of papain induced emphysema” value in the experiment with Papain induced emphysema was “inhibited”. Besides, the inhibition of papain result in the experiment with papain is recorded as “not inhibited”. Besides, in experiment [2], the inhibitory spectrum entry was “wide inhibitory spectrum”.

Regarding `O=C(c1ccco1)N1C(=O)c2ccccc2S1(=O)=O` [reference compound], the IC50 on Human PMN Elastase is 0.361 µM; in experiment [1] it was 0.721 µM; on Chymotrypsin (setting [3]), 0.0721 µM; at Trypsin (setting [4]), 1.8 µM.

These data come from patent US4276298A, “2-Aryl-1,2-benzisothiazolinone-1,1-dioxides and their use as selective protease inhibitors” (Merck & Co., Inc., priority 1979, dated 1981).
